Earlier results on 4 compounds are cited in patent publication US20100003322A1, “ENTERIC COATED HYDROPHOBIC MATRIX FORMULATION” (priority 2008, published 2010).

Counter-ions that a name gives are not always drawn.

For this data set the following is noted: for solubility as described in the package insert: water, for gabapentin also basic and acidic aqueous solutions; for water solubility: volume of water that dissolves 1 g: 1 g of drug in the stated ml of water.

`CC[C@@H](C(N)=O)N1CCCC1=O` [levetiracetam, (−)-(S)-α-ethyl-2-oxo-1-pyrrolidine acetamide]: the “solubility as described in the package insert” value is “very soluble”. Further, where the note is “in 100 ml of water”, the “water solubility: amount dissolved in 100 ml of water” value is “approximately 104 grams”.
Consider `COc1cccc(C2(O)CCCCC2CN(C)C)c1` (centres unmarked) [tramadol hydrochloride], for which the “water solubility: volume of water that dissolves 1 g” value was around 33 mL.
`NCC1(CC(=O)O)CCCCC1` [gabapentin, 1-(aminomethyl)cyclohexaneacetic acid]: the “solubility as described in the package insert” value is “freely soluble”.
With `CCCC(CCC)C(=O)[O-].[Na+]` [sodium valproate, sodium 2-propylpentanoate], the “water solubility: volume of water that dissolves 1 g” value was 0.4 mL.
